Patent publication US20240352419A1, “METHODS AND COMPOSITIONS FOR DIFFERENTIATION OF PLURIPOTENT STEM CELLS AND DERIVED HEMATOPOIETIC LINEAGE CELLS” (NUWACELL BIOTECHNOLOGIES CO., LTD., priority 2022, published 2024)

What was measured:
Format in all cases: cell-based
K562 cells = test: Cytotoxicity of Stage 3 iNK cells by CFSE/7AAD assay; settings: added to Stage 3 medium (IL-10 20 ng/mL, IL-18 50 ng/mL), E:T 3:1, 4 hr, FIG. 13A
Procedure: hiPSCs were prepared as described in CN108373998B. On Day −1, Embryoid body (EB) formation (Stage 1-1) was carried out by placing individualized hiPSCs in E8 medium containing 10 μM Blebbistatin in T25 flasks on a bellydancer and culture overnight. On Day 0, lateral mesoderm differentiation (Stage 1-2) was initiated by changing the medium to a Stage 1-2 differentiation medium comprising IF-4 basal medium and supplemented with BMP4 (25 ng/mL), VEGF (15 ng/ml), bFGF (0.5 ng/mL) and CHIR99021 (4 μM) for 2 days. On Day 2, lateral mesoderm differentiation (Stage 1-3) continued for 1 day in a Stage 1-3 differentiation medium comprising IF-4 basal medium and supplemented with BMP4 (25 ng/mL), VEGF (50 ng/mL) and bFGF (0.5 ng/mL) and CHIR99021 (1 μM). On Day 3, HE specification (Stage 1-4) was initiated by adding a Stage 1-4 differentiation medium comprising IF-4 basal medium and supplemented with VEGF (15 ng/ml), bFGF (5 ng/ml), XAV939 (5 μM) for 1 day. […] On Day 11 of co-culture, iNK cells were collected and stained with CD56-PE antibody (BD, #555516), the percentage of CD56+ cells was analyzed by flow cytometry. The cytotoxicity of Stage 3 iNK cells towards K562 cells was detected by CFSE/7AAD assay after 4 hr co-culture at E:T of 3:1.

PBNK cells = test: Expansion of PBNK cells from PBMCs (expansion fold, CD56+CD3- percentage by flow cytometry); settings: effect of heparin sodium concentration (0-50 μg/mL) in NKSFM
Procedure: The effect of the concentration of nicotinamide (NAM) in an exemplary basal medium on NK cell expansion was evaluated. The above basal medium comprised the following components: IMDM (Sigma):RPMI1640 (Gibco) (50%: 50%); about 1.3 ng/ml of Cupric sulfate, about 3 μM of Ferric sulfate, about 0.432 μg/mL of Zinc sulfate, about 1˜50 ng/ml of Na Selenite, about 110 μg/mL of Sodium pyruvate, 0.1˜20 μg/mL of Insulin, 1˜200 μg/mL of Transferrin, about 1% (v/v) of GlutaMAX-1, 0.1˜20 mg/mL of HSA, 1˜400 μM of MTG, about 80 μg/mL of Ascorbic acid and indicated concentration of NAM. Peripheral blood mononuclear cells (PBMCs) were isolated by density gradient centrifugation using Ficoll-Paque. On Day 0, PBMCs were plated at 1×10^6 cells/mL in a 48-well-plate in the basal medium with NAM (either 0, 1, 2, 2.5, 3, 3.5, 4, or 5 mM) and stimulated with the following reagents for 3 days: immobilized CD16 antibody (Biolegend, 302014) (135 ng/cm^2), IL-2 (700 IU/mL), IL-15 (10 ng/ml) and OK432 (0.01 KE/mL). On day 3, cells were re-suspended in the above basal medium supplemented with IL-2 (700 IU/mL) and IL-15 (10 ng/mL). Fresh medium was added every other day to maintain cell density below 2×10^6 cells/mL. Cells were collect on Day 14 and stained with CD56-PE and CD3-PerCP-Cy5.5 antibodies, the percentage of CD56^+CD3^− NK cells was analyzed by flow cytometry.
(§1) The effect of heparin sodium concentration in an exemplary NKSFM on NK cell expansion was also evaluated. NKSFM comprised the following components: IMDM (Sigma):DMEM/F12 (Gibco) (50%: 50%); about 20 μM of Ethanolamine, about 1˜50 ng/ml of Na Selenite, about 110 μg/mL of Sodium pyruvate, 0.1˜20 μg/mL of Insulin, 1˜200 μg/mL of Transferrin, about 1% (v/v) of GlutaMAX-1, 0.1˜20 mg/mL of Human serum albumin, 1˜400 μM of MTG, about 80 μg/mL of Ascorbic acid, about 1˜5 mM of NAM, 4% (v/v) of PLT, and indicated concentration of heparin sodium. PBMCs were isolated by density gradient centrifugation using Ficoll-Paque. On Day 0, PBMCs were plated at 1×10^6 cells/mL in a 48-well-plate in NKSFM with heparin sodium (0, 0.5, 1, 3, 10, 30, or 50 μg/mL) and stimulated with the following reagents for 3 days: immobilized CD16 antibody (Biolegend, 302014) (135 ng/cm^2), OK432 (0.01 KE/mL), NeoIL-2 (50 ng/ml), IL-12 (10 ng/mL), IL-18 (50 ng/mL). […] Cells were collect on Day 13 and stained with CD56-PE and CD3-PerCP-Cy5.5 antibodies, the percentage of CD56^+CD3^− NK cells was analyzed by flow cytometry. The specific lysis of K562 tumor cells by NK cells were assessed by CFSE/7-AAD cytotoxicity assay. […] After incubation for 4 hours, cells were stained with 7-AAD (Live/dead staining) and analyzed with flow cytometry.
The effect of PLT percentage (v/v) in an exemplary NKSFM on NK cell expansion was evaluated. […]

K562 tumor cells = test: CFSE/7-AAD cytotoxicity assay of expanded NK cells; settings: effect of heparin sodium concentration in NKSFM, E:T 3:1, 4 hours, FIG. 3C
Procedure: as §1, with “Ficoll-Paque.” for “Ficoll-Paque. On Day 0, PBMCs were plated at 1×10^6 cells/mL in a 48-well-plate in NKSFM with heparin sodium (0, 0.5, 1, 3, 10, 30, or 50 μg/mL) and stimulated with the following reagents for 3 days: immobilized CD16 antibody (Biolegend, 302014) (135 ng/cm^2), OK432 (0.01 KE/mL), NeoIL-2 (50 ng/ml), IL-12 (10 ng/mL), IL-18 (50 ng/mL).”
The effect of PLT percentage (v/v) in an exemplary NKSFM on NK cell expansion was evaluated. […] Cells were collect on Day 14 and stained with CD56-PE and CD3-PerCP-Cy5.5 antibodies, the percentage of CD56^+CD3^− NK cells was analyzed by flow cytometry. The specific lysis of K562 tumor cells by NK cells were assessed by CFSE/7-AAD cytotoxicity assay. […]

| Substance | cytotoxicity of iNK cells (K562 cells) | NK cell expansion fold (PBNK cells; Day 13, FIG. 3A) | percentage of CD56+CD3− NK cells (PBNK cells; Day 13, FIG. 3B) | specific lysis of K562 tumor cells (K562 tumor cells) |
| --- | --- | --- | --- | --- |
| IL-10: interleukin added to Stage 3 expansion and maturation medium | significantly improve | – | – | – |
| heparin sodium | – | significantly influences | minimal effect | minimal effect |
